Data taken from PubChem BioAssay AID328 (DTP/NCI, 2004).
Inconclusive results and toxic doses are left out. How the source made its calls: active means survival T/C of 150% or more; inactive means T/C below 125% in these data.

Tested on: BDF1 mice, P388 leukemia ip, median survival T/C
Assay: NCI In Vivo Anticancer Drug Screen. Data for tumor model P388 Leukemia (intraperitoneal) in B6D2F1 (BDF1) mice
Conditions: endpoint: median survival time, higher = longer survival
Summary of the method: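 Steps: implant the tumour, treat one group with compound and another with vehicle, record survival, then divide treated by control.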

[1] = dose: 100.0 mg/kg/injection, schedule: Q04DX003 (ip), vehicle: Klucel (hydroxypropylcellulose) (HPC)
[2] = dose: 200.0 mg/kg/injection, schedule: Q04DX003 (ip), vehicle: Klucel (hydroxypropylcellulose) (HPC)
[3] = dose: 100.0 mg/kg/injection, schedule: Q04DX003 (ip), vehicle: saline with Tween-80
[4] = dose: 25.0 mg/kg/injection, schedule: Q04DX003 (ip), vehicle: saline with Tween-80
[5] = dose: 50.0 mg/kg/injection, schedule: Q01DX009 (ip), vehicle: saline with Tween-80
[6] = dose: 50.0 mg/kg/injection, schedule: Q04DX003 (ip), vehicle: saline with Tween-80
[7] = dose: 100.0 mg/kg/injection, schedule: Q01DX009 (ip), vehicle: saline with Tween-80
[8] = dose: 100.0 mg/kg/injection, schedule: Q01DX009 (ip), vehicle: saline
[9] = dose: 100.0 mg/kg/injection, schedule: Q04DX003 (ip), vehicle: saline
[10] = dose: 200.0 mg/kg/injection, schedule: Q01DX009 (ip), vehicle: saline
[11] = dose: 200.0 mg/kg/injection, schedule: Q04DX003 (ip), vehicle: saline
[12] = dose: 400.0 mg/kg/injection, schedule: Q04DX003 (ip), vehicle: saline
[13] = dose: 50.0 mg/kg/injection, schedule: Q01DX009 (ip), vehicle: Klucel (hydroxypropylcellulose) (HPC)
[14] = dose: 100.0 mg/kg/injection, schedule: Q01DX009 (ip), vehicle: Klucel (hydroxypropylcellulose) (HPC)
[15] = dose: 200.0 mg/kg/injection, schedule: Q01DX009 (ip), vehicle: Klucel (hydroxypropylcellulose) (HPC)
[16] = dose: 200.0 mg/kg/injection, schedule: Q01DX009 (ip), vehicle: saline with Tween-80

Measured: T/C

CC(C)COC(=O)c1ccccc1O
inactive: dose: 75.0 mg/kg/injection, schedule: Q01DX009 (ip), vehicle: Klucel (hydroxypropylcellulose) (HPC) 109 % of control | [1] 111 % of control | dose: 150.0 mg/kg/injection, schedule: Q01DX009 (ip), vehicle: Klucel (hydroxypropylcellulose) (HPC) 90 % of control | [2] 92 % of control | dose: 300.0 mg/kg/injection, schedule: Q01DX009 (ip), vehicle: Klucel (hydroxypropylcellulose) (HPC) 109 % of control

COc1ccc2c3c1OC1CC(O)C=CC31CCN(C)C2 (centres undefined)
inactive: dose: 5.0 mg/kg/injection, schedule: Q01DX010 (ip), vehicle: carboxymethylcellulose (CMC) 100 % of control

O=C(CC(O)(C(F)(F)F)C(F)(F)F)c1ccc([N+](=O)[O-])cc1
inactive: dose: 100.0 mg/kg/injection, schedule: Q01DX009 (ip), vehicle: other 95 % of control | dose: 100.0 mg/kg/injection, schedule: Q04DX003 (ip), vehicle: other 110 % of control | dose: 200.0 mg/kg/injection, schedule: Q01DX009 (ip), vehicle: other 95 % of control | dose: 200.0 mg/kg/injection, schedule: Q04DX003 (ip), vehicle: other 95 % of control | dose: 400.0 mg/kg/injection, schedule: Q01DX009 (ip), vehicle: other 100 % of control | dose: 400.0 mg/kg/injection, schedule: Q04DX003 (ip), vehicle: other 100 % of control

Cc1ncc([N+](=O)[O-])n1CCSC(=N)N
inactive: [3] 105 % of control | dose: 200.0 mg/kg/injection, schedule: Q04DX003 (ip), vehicle: saline with Tween-80 105 % of control

CCCC(=O)OCc1ccc(Cl)cc1Cl
inactive: [3] 109 % of control | dose: 400.0 mg/kg/injection, schedule: Q04DX003 (ip), vehicle: saline with Tween-80 113 % of control

CCCCCCCCCCCCOB(OCCCCCCCCCCCC)OCCCCCCCCCCCC
inactive: dose: 25.0 mg/kg/injection, schedule: Q01DX009 (ip), vehicle: saline with Tween-80 100 % of control | [4] 91 % of control | [5] 108 % of control | [6] 95 % of control | [7] 100 % of control | [3] 116 % of control

CNC(C)(C)CO
inactive: [8] 105 % of control | [9] 104 % of control | [10] 115 % of control | [11] 95 % of control | [12] 95 % of control

CCCCN1C(=O)C2CC=C3C=CN4C(C3C2C1=O)C1C(=O)N(CCCC)C(=O)C1C41CC(=O)N(CCCC)C1=O (centres undefined)
inactive: [13] 104 % of control | [14] 100 % of control | [1] 100 % of control | [15] 90 % of control | [2] 91 % of control

CN(N)c1cc(=O)n(C)c(=O)n1C
inactive: [9] 110 % of control | [11] 103 % of control | [12] 101 % of control

COc1cc2c(cc1OC)C(=O)Cc1ccc3c(c1CN(C)CC2)OCO3
inactive: dose: 1.5 mg/kg/injection, schedule: Q01DX009 (ip), vehicle: saline sonified 95 % of control | dose: 3.0 mg/kg/injection, schedule: Q01DX009 (ip), vehicle: saline sonified 100 % of control | dose: 6.0 mg/kg/injection, schedule: Q01DX009 (ip), vehicle: saline sonified 112 % of control

CCCCCC(C1=NC(C)(C)CC(C)O1)c1ccccc1 (centres undefined)
inactive: dose: 50.0 mg/kg/injection, schedule: Q04DX003 (ip), vehicle: saline sonified 100 % of control | dose: 100.0 mg/kg/injection, schedule: Q04DX003 (ip), vehicle: saline sonified 100 % of control | dose: 200.0 mg/kg/injection, schedule: Q04DX003 (ip), vehicle: saline sonified 100 % of control

CN1/C(=C/C=C(/N=C(C#N)C#N)c2ccccc2)C(C)(C)c2ccccc21
inactive: [5] 95 % of control | [7] 98 % of control | [16] 98 % of control

CC1(CCBr)NC(=O)NC1=O (centres undefined)
inactive: [14] 110 % of control | [1] 100 % of control | [15] 105 % of control | [2] 115 % of control | dose: 400.0 mg/kg/injection, schedule: Q01DX009 (ip), vehicle: Klucel (hydroxypropylcellulose) (HPC) 105 % of control | dose: 400.0 mg/kg/injection, schedule: Q04DX003 (ip), vehicle: Klucel (hydroxypropylcellulose) (HPC) 100 % of control

Cc1ccnc(=O)[nH]1
inactive: dose: 3.13 mg/kg/injection, schedule: Q01DX009 (ip), vehicle: saline 103 % of control | dose: 6.25 mg/kg/injection, schedule: Q01DX009 (ip), vehicle: saline 115 % of control | dose: 12.5 mg/kg/injection, schedule: Q01DX009 (ip), vehicle: saline 99 % of control | dose: 25.0 mg/kg/injection, schedule: Q01DX009 (ip), vehicle: saline 105 % of control

Nc1nc(-c2c[nH]c(=O)[nH]c2=O)cs1
inactive: [5] 103 % of control | [7] 98 % of control

CC(=O)Nc1ccc(OCCOC(=O)Nc2c(Cl)cccc2Cl)cc1
inactive: dose: 25.0 mg/kg/injection, schedule: Q01DX009 (ip), vehicle: Klucel (hydroxypropylcellulose) (HPC) 111 % of control | [13] 100 % of control | [14] 100 % of control

CC1CCCCN1O (centres undefined)
inactive: dose: 100.0 mg/kg/injection, schedule: Q04DX002 (ip), vehicle: saline with Tween-80 100 % of control | dose: 200.0 mg/kg/injection, schedule: Q04DX002 (ip), vehicle: saline with Tween-80 105 % of control | dose: 400.0 mg/kg/injection, schedule: Q04DX002 (ip), vehicle: saline with Tween-80 96 % of control

CC(=O)OCCN1CCN(CCCN2c3ccccc3Sc3ccc(C(F)(F)F)cc32)CC1
inactive: dose: 0.69 mg/kg/injection, schedule: Q01DX009 (ip), vehicle: saline 104 % of control | dose: 1.04 mg/kg/injection, schedule: Q01DX009 (ip), vehicle: saline 104 % of control | dose: 1.56 mg/kg/injection, schedule: Q01DX009 (ip), vehicle: saline 120 % of control | dose: 2.34 mg/kg/injection, schedule: Q01DX009 (ip), vehicle: saline 108 % of control | [4] 117 % of control | [6] 91 % of control

COC(=O)C(C)CN1CCCCCC1 (centres undefined)
inactive: dose: 50.0 mg/kg/injection, schedule: Q01DX009 (ip), vehicle: saline 109 % of control | [8] 90 % of control | [10] 109 % of control

CC(C)(C)[N]1[Si](C)(C)[N](C(C)(C)C)[Sn]12[S][Sn]1([S]2)[N](C(C)(C)C)[Si](C)(C)[N]1C(C)(C)C
inactive: [5] 100 % of control | [7] 94 % of control | [16] 86 % of control
